In doi:10.1101/2020.03.31.018853v1 (biorxiv, 2020) one finds Kd data, which are given here for 1 compound.

In the experiment the target is T1, GtCPES (Guillardia theta, UniProt L1JFC7, M146A).
T1 sequence (L1JFC7 80-253 M146A): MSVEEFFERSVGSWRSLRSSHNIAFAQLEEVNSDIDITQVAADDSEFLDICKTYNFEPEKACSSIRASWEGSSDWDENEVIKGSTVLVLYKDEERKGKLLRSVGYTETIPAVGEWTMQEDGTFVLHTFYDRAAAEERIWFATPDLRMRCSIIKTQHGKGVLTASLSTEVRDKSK
In words: UV-Vis absorbance titration. Format: binding.

With `C/C=C1/C(=C/c2[nH]c(/C=C3N=C(/C=C4\NC(=O)C(CC)=C4C)C(C)=C\3CCC(=O)O)c(CCC(=O)O)c2C)NC(=O)[C@@H]1C` [3(E)-PCB], the Kd (as a rule, the free concentration of one partner at which half of the binding sites on the other are occupied at equilibrium, for simple one-to-one binding) stood at 7 ± 0.4 µM.
